Results from patent publication US12077503B2, “Substituted cyclic amides and their use as herbicides” (FMC CORPORATION, priority 2015, dated 2024).

Columns and labels:
Format in all cases: in vivo
[1] = system: velvetleaf (Abutilon theophrasti); assay: Test G Post-Emergence Protocol; conditions: Abutilon theophrasti, post-emergence, 312 h; for pest or weed control at 15.625 g/ha: 15.625 g ai/ha, evaluated after 13 days (100=total damage to plant; 0=no damage to plant), read-out: Velvetleaf damage rating; for pest or weed control at 62.5 g/ha: 62.5 g ai/ha, read-out: Velvetleaf damage rating (100=total damage to plant; 0=no damage to plant); for pest or weed control at 62.5 g/ha / pest or weed control at 250 g/ha: evaluated after 13 days; for pest or weed control at 250 g/ha: 250 g ai/ha, read-out: damage to plant, Velvetleaf (100=total damage to plant; 0=no damage to plant)
Procedure, shortened: (§1)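 Foliar application was made 8 days after sowing, using an aqueous spray of the active in acetone/water (50:50) with 0.5% Tween 20, at doses of 15.625, 62.5 or 250 g/ha. Injury was assessed 13 days later, where 100 meant the plant was fully damaged.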

[2] = system: barnyardgrass (Echinochloa crus-galli); assay: Test G Post-Emergence Protocol; conditions: Echinochloa crus-galli, post-emergence, 312 h; for pest or weed control at 15.625 g/ha: 15.625 g ai/ha, evaluated after 13 days (100=total damage to plant; 0=no damage to plant), read-out: Barnyardgrass damage rating; for pest or weed control at 62.5 g/ha: 62.5 g ai/ha, read-out: Barnyardgrass damage rating (100=total damage to plant; 0=no damage to plant); for pest or weed control at 62.5 g/ha / pest or weed control at 250 g/ha: evaluated after 13 days; for pest or weed control at 250 g/ha: 250 g ai/ha, read-out: damage to plant, Barnyardgrass (100=total damage to plant; 0=no damage to plant)
Procedure, shortened: as §1

[3] = system: ivy-leaved morning glory (Ipomoea hederacea); assay: Test G Post-Emergence Protocol; conditions: Ipomoea, post-emergence, 312 h; for pest or weed control at 15.625 g/ha: 15.625 g ai/ha, evaluated after 13 days (100=total damage to plant; 0=no damage to plant), read-out: Morningglory, Ivy-leaved damage rating; for pest or weed control at 62.5 g/ha: 62.5 g ai/ha, read-out: Morningglory, Ivy-leaved damage rating (100=total damage to plant; 0=no damage to plant); for pest or weed control at 62.5 g/ha / pest or weed control at 250 g/ha: evaluated after 13 days; for pest or weed control at 250 g/ha: 250 g ai/ha, read-out: damage to plant, Morningglory, Ivy-leaved (100=total damage to plant; 0=no damage to plant)
Procedure, shortened: as §1

[4] = system: giant foxtail (Setaria faberi); assay: Test G Post-Emergence Protocol; conditions: Setaria faberi, post-emergence, 312 h; for pest or weed control at 15.625 g/ha: 15.625 g ai/ha, evaluated after 13 days (100=total damage to plant; 0=no damage to plant), read-out: Foxtail, Giant damage rating; for pest or weed control at 62.5 g/ha: 62.5 g ai/ha, read-out: Foxtail, Giant damage rating (100=total damage to plant; 0=no damage to plant); for pest or weed control at 62.5 g/ha / pest or weed control at 250 g/ha: evaluated after 13 days; for pest or weed control at 250 g/ha: 250 g ai/ha, read-out: damage to plant, Foxtail, Giant (100=total damage to plant; 0=no damage to plant)
Procedure, shortened: as §1

[5] = system: redroot pigweed (Amaranthus retroflexus); assay: Test G Post-Emergence Protocol; conditions: Amaranthus retroflexus, post-emergence, 312 h; for pest or weed control at 15.625 g/ha: 15.625 g ai/ha, evaluated after 13 days (100=total damage to plant; 0=no damage to plant), read-out: Pigweed, Redroot damage rating; for pest or weed control at 62.5 g/ha: 62.5 g ai/ha, read-out: Pigweed, Redroot damage rating (100=total damage to plant; 0=no damage to plant); for pest or weed control at 62.5 g/ha / pest or weed control at 250 g/ha: evaluated after 13 days; for pest or weed control at 250 g/ha: 250 g ai/ha, read-out: damage to plant, Pigweed, Redroot (100=total damage to plant; 0=no damage to plant)
Procedure, shortened: as §1

corn (Zea mays) [6] = assay: Test G Post-Emergence Protocol; conditions: Zea mays, post-emergence, 312 h; for plant injury at 15.625 g/ha: 15.625 g ai/ha, evaluated after 13 days (100=total damage to plant; 0=no damage to plant), read-out: Corn damage rating; for plant injury at 62.5 g/ha: 62.5 g ai/ha, read-out: Corn damage rating (100=total damage to plant; 0=no damage to plant); for plant injury at 62.5 g/ha / plant injury at 250 g/ha: evaluated after 13 days; for plant injury at 250 g/ha: 250 g ai/ha, read-out: damage to plant, Corn (100=total damage to plant; 0=no damage to plant)
Procedure, shortened: as §1

[7] = system: velvetleaf (Abutilon theophrasti); assay: Test G Pre-Emergence Protocol; conditions: Abutilon theophrasti, pre-emergence, 312 h, evaluated after 13 days; for pest or weed control at 15.625 g/ha: 15.625 g ai/ha; for pest or weed control at 15.625 g/ha / pest or weed control at 250 g/ha: read-out: Velvetleaf damage rating (100=total damage to plant; 0=no damage to plant); for pest or weed control at 62.5 g/ha: 62.5 g ai/ha, 100=total damage to plant, 0=no damage to plant, read-out: plant damage rating, Velvetleaf; for pest or weed control at 250 g/ha: 250 g ai/ha
Procedure, shortened: (§2)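 Scores are visual damage ratings from 0 (no damage) to 100 (total plant kill), taken 13 days after treatment. Compound was sprayed one day post-sowing at 15.625, 62.5 or 250 g/ha in 50:50 acetone/water with 0.5% Tween 20.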

[8] = system: barnyardgrass (Echinochloa crus-galli); assay: Test G Pre-Emergence Protocol; conditions: Echinochloa crus-galli, pre-emergence, 312 h, evaluated after 13 days; for pest or weed control at 15.625 g/ha: 15.625 g ai/ha, read-out: Barnyard grass damage rating (100=total damage to plant; 0=no damage to plant); for pest or weed control at 62.5 g/ha: 62.5 g ai/ha, 100=total damage to plant, 0=no damage to plant, read-out: plant damage rating, Barnyardgrass; for pest or weed control at 250 g/ha: 250 g ai/ha, read-out: Barnyardgrass damage rating (100=total damage to plant; 0=no damage to plant)
Procedure, shortened: as §2

[9] = system: ivy-leaved morning glory (Ipomoea hederacea); assay: Test G Pre-Emergence Protocol; conditions: Ipomoea, pre-emergence, 312 h, evaluated after 13 days; for pest or weed control at 15.625 g/ha: 15.625 g ai/ha, read-out: Morning-glory, Ivy-leaved damage rating (100=total damage to plant; 0=no damage to plant); for pest or weed control at 62.5 g/ha: 62.5 g ai/ha, 100=total damage to plant, 0=no damage to plant, read-out: plant damage rating, Morningglory, Ivy-leaved; for pest or weed control at 250 g/ha: 250 g ai/ha, read-out: Morningglory, Ivy-leaved damage rating (100=total damage to plant; 0=no damage to plant)
Procedure, shortened: as §2

[10] = system: giant foxtail (Setaria faberi); assay: Test G Pre-Emergence Protocol; conditions: Setaria faberi, pre-emergence, 312 h, evaluated after 13 days; for pest or weed control at 15.625 g/ha: 15.625 g ai/ha; for pest or weed control at 15.625 g/ha / pest or weed control at 250 g/ha: read-out: Foxtail, Giant damage rating (100=total damage to plant; 0=no damage to plant); for pest or weed control at 62.5 g/ha: 62.5 g ai/ha, 100=total damage to plant, 0=no damage to plant, read-out: plant damage rating, Foxtail, Giant; for pest or weed control at 250 g/ha: 250 g ai/ha
Procedure, shortened: as §2

[11] = system: redroot pigweed (Amaranthus retroflexus); assay: Test G Pre-Emergence Protocol; conditions: Amaranthus retroflexus, pre-emergence, 312 h, evaluated after 13 days; for pest or weed control at 15.625 g/ha: 15.625 g ai/ha; for pest or weed control at 15.625 g/ha / pest or weed control at 250 g/ha: read-out: Pigweed, Redroot damage rating (100=total damage to plant; 0=no damage to plant); for pest or weed control at 62.5 g/ha: 62.5 g ai/ha, 100=total damage to plant, 0=no damage to plant, read-out: plant damage rating, Pigweed, Redroot; for pest or weed control at 250 g/ha: 250 g ai/ha
Procedure, shortened: as §2

corn (Zea mays) [12] = assay: Test G Pre-Emergence Protocol; conditions: Zea mays, pre-emergence, 312 h, evaluated after 13 days; for plant injury at 15.625 g/ha: 15.625 g ai/ha; for plant injury at 15.625 g/ha / plant injury at 250 g/ha: read-out: Corn damage rating (100=total damage to plant; 0=no damage to plant); for plant injury at 62.5 g/ha: 62.5 g ai/ha, 100=total damage to plant, 0=no damage to plant, read-out: plant damage rating, Corn; for plant injury at 250 g/ha: 250 g ai/ha
Procedure, shortened: as §2

## CN1C[C@H](c2ccc(C(F)(F)F)cc2)[C@@H](C(=O)Nc2ccc(F)c(F)c2)C1=O (racemic) [Compound 1412]
[1]
  pest or weed control at 15.625 g/ha: 0%
  pest or weed control at 62.5 g/ha: 40%
  pest or weed control at 250 g/ha: 40%
[2]
  pest or weed control at 15.625 g/ha: 0%
  pest or weed control at 62.5 g/ha: 50%
  pest or weed control at 250 g/ha: 60%
[3]
  pest or weed control at 15.625 g/ha: 0%
  pest or weed control at 62.5 g/ha: 0%
  pest or weed control at 250 g/ha: 20%
[4]
  pest or weed control at 15.625 g/ha: 0%
  pest or weed control at 62.5 g/ha: 60%
  pest or weed control at 250 g/ha: 70%
[5]
  pest or weed control at 15.625 g/ha: 30%
  pest or weed control at 62.5 g/ha: 40%
  pest or weed control at 250 g/ha: 40%
Corn (Zea mays) [6]
  plant injury at 15.625 g/ha: 20%
  plant injury at 62.5 g/ha: 10%
  plant injury at 250 g/ha: 10%
[7]
  pest or weed control at 15.625 g/ha: 0%
  pest or weed control at 62.5 g/ha: 0%
  pest or weed control at 250 g/ha: 10%
[8]
  pest or weed control at 15.625 g/ha: 0%
  pest or weed control at 62.5 g/ha: 30%
  pest or weed control at 250 g/ha: 60%
[9]
  pest or weed control at 15.625 g/ha: 0%
  pest or weed control at 62.5 g/ha: 0%
  pest or weed control at 250 g/ha: 0%
[10]
  pest or weed control at 15.625 g/ha: 10%
  pest or weed control at 62.5 g/ha: 50%
  pest or weed control at 250 g/ha: 80%
[11]
  pest or weed control at 15.625 g/ha: 20%
  pest or weed control at 62.5 g/ha: 20%
  pest or weed control at 250 g/ha: 10%
Corn (Zea mays) [12]
  plant injury at 15.625 g/ha: 0%
  plant injury at 62.5 g/ha: 10%
  plant injury at 250 g/ha: 10%

## Cc1cccc(NC(=O)[C@H]2C(=O)N(C)C[C@@H]2c2ccc(C(F)(F)F)cc2)c1C#N (racemic) [Compound 1413]
[1]
  pest or weed control at 15.625 g/ha: 0%
  pest or weed control at 62.5 g/ha: 0%
  pest or weed control at 250 g/ha: 10%
[2]
  pest or weed control at 15.625 g/ha: 20%
  pest or weed control at 62.5 g/ha: 50%
  pest or weed control at 250 g/ha: 60%
[3]
  pest or weed control at 15.625 g/ha: 0%
  pest or weed control at 62.5 g/ha: 0%
  pest or weed control at 250 g/ha: 0%
[4]
  pest or weed control at 15.625 g/ha: 40%
  pest or weed control at 62.5 g/ha: 70%
  pest or weed control at 250 g/ha: 70%
[5]
  pest or weed control at 15.625 g/ha: 0%
  pest or weed control at 62.5 g/ha: 10%
  pest or weed control at 250 g/ha: 20%
Corn (Zea mays) [6]
  plant injury at 15.625 g/ha: 0%
  plant injury at 62.5 g/ha: 0%
  plant injury at 250 g/ha: 0%
[7]
  pest or weed control at 15.625 g/ha: 0%
  pest or weed control at 62.5 g/ha: 0%
  pest or weed control at 250 g/ha: 0%
[8]
  pest or weed control at 15.625 g/ha: 0%
  pest or weed control at 62.5 g/ha: 20%
  pest or weed control at 250 g/ha: 80%
[9]
  pest or weed control at 15.625 g/ha: 0%
  pest or weed control at 62.5 g/ha: 0%
  pest or weed control at 250 g/ha: 0%
[10]
  pest or weed control at 15.625 g/ha: 0%
  pest or weed control at 62.5 g/ha: 60%
  pest or weed control at 250 g/ha: 90%
[11]
  pest or weed control at 15.625 g/ha: 0%
  pest or weed control at 62.5 g/ha: 20%
  pest or weed control at 250 g/ha: 20%
Corn (Zea mays) [12]
  plant injury at 15.625 g/ha: 0%
  plant injury at 62.5 g/ha: 0%
  plant injury at 250 g/ha: 0%
